Data taken from ChEMBL document CHEMBL1152711, “Synthesis and SAR of potent LXR agonists containing an indole pharmacophore” (Bioorg Med Chem Lett, 2009).

Columns and labels:
[1] = biological target: T1, Oxysterols receptor LXR-alpha (Homo sapiens) (UniProt Q13133); experiment: Agonist activity at LXRalpha by FRET assay relative to GW-3965A; format: functional
T1 sequence (whole entry): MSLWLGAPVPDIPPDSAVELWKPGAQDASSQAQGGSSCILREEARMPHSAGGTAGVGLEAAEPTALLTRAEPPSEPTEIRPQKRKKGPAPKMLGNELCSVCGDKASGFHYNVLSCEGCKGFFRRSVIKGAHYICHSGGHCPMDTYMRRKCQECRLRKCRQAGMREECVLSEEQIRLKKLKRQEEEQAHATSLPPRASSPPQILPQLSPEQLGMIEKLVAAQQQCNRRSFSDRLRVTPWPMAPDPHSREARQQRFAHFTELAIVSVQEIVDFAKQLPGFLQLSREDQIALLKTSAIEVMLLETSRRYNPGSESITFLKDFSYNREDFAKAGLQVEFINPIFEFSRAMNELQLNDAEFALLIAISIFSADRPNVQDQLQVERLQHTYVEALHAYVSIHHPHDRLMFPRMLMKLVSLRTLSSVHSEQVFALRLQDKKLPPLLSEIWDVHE

[2] = biological target: T2, Oxysterols receptor LXR-beta (Homo sapiens, UniProt P55055); experiment: Agonist activity at LXRbeta by FRET assay; format: functional
T2 sequence (P55055 whole entry): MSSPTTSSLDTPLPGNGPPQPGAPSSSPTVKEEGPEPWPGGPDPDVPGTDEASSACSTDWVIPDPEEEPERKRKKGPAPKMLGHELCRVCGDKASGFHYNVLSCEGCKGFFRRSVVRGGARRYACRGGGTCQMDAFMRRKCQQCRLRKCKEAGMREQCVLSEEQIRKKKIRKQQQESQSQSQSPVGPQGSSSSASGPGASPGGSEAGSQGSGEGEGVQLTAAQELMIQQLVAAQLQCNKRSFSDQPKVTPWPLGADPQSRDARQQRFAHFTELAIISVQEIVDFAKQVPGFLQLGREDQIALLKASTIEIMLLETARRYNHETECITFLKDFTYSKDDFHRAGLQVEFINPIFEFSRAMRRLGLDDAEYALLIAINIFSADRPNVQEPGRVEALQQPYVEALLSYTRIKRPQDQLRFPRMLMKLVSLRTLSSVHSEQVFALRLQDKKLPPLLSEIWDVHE

[3] = biological target: T3, Oxysterols receptor LXR-alpha (Homo sapiens, UniProt Q13133); experiment: Agonist activity at LXRalpha by FRET assay; format: functional
T3 sequence (Q13133 whole entry): T1 sequence (whole entry)

[4] = biological target: T4, Oxysterols receptor LXR-beta (Homo sapiens) (UniProt P55055); experiment: Agonist activity at LXRbeta by FRET assay relative to GW-3965A; format: functional; design: concentration or dose not given beside the values
T4 sequence (whole entry): T2 sequence (P55055 whole entry)

Mus musculus = organism: Mus musculus; experiment: Increase in ABCA1 expression in mouse macrophages by cholesterol efflux assay
[5] = Oral bioavailability in Sprague-Dawley rat at 2.1 mg/kg; format: ADME, organism-based; settings: in vivo
[6] = Volume of distribution at steady state in Sprague-Dawley rat at 1.1 mg/kg, iv or 2.1 mg/kg, po; format: ADME, organism-based; settings: in vivo, read-out: Vdss
[7] = Half life in Sprague-Dawley rat at 1.1 mg/kg, iv; format: ADME, organism-based; design: dose 1.1 mg/kg, route intravenous; settings: in vivo
[8] = Cmax in Sprague-Dawley rat at 2.1 mg/kg, po; format: ADME, organism-based; design: dose 2.1 mg/kg, route oral; settings: in vivo
[9] = Half life in Sprague-Dawley rat at 2.1 mg/kg, po; format: ADME, organism-based; design: dose 2.1 mg/kg, route oral; settings: in vivo
[10] = Plasma clearance in Sprague-Dawley rat at 1.1 mg/kg, iv or 2.1 mg/kg, po; format: ADME, organism-based

Structure (SMILES) | Activity [1] | EC50 [2] | EC50 [3] | Activity [4] | EC50 (Mus musculus) | bioavailability [5] | Vd [6] | half-life [7] | Cmax [8] | half-life [9] | clearance [10]
FC(F)(F)c1cccc(CN(CCCOc2cccc3[nH]ccc23)CC(c2ccccc2)c2ccccc2)c1Cl | 90% | 0.015 µM | 0.06 µM | 104% | 0.005 µM | – | – | – | – | – | –
FC(F)(F)c1cccc(CN(CCCOc2n[nH]c3ccccc23)CC(c2ccccc2)c2ccccc2)c1Cl | 17% | 0.06 µM | 0.11 µM | 44% | – | – | – | – | – | – | –
COC(=O)Cc1c[nH]c2ccc(OCCCN(Cc3cccc(C(F)(F)F)c3Cl)CC(c3ccccc3)c3ccccc3)cc12 | 19% | 0.288 µM | 0.63 µM | 36% | – | – | – | – | – | – | –
O=C(O)Cn1ccc2c(OCCCN(Cc3cccc(C(F)(F)F)c3Cl)CC(c3ccccc3)c3ccccc3)cccc21 | 132% | 0.004 µM | 0.014 µM | 105% | 0.015 µM | 45.4% | 1.15 L/kg | 1.35 h | 1810 ng/mL | 2.9 h | 14.6 mL/min/kg
CS(=O)(=O)n1ccc2c(OCCCN(Cc3cccc(C(F)(F)F)c3Cl)CC(c3ccccc3)c3ccccc3)cccc21 | 50% | 0.007 µM | 0.02 µM | 72% | – | – | – | – | – | – | –
O=C(O)Cc1cccc(OCCCN(Cc2cccc(C(F)(F)F)c2Cl)CC(c2ccccc2)c2ccccc2)c1 | – | 0.025 µM | – | – | 0.05 µM | – | – | – | – | – | –

Now from value to compound:

Activity [1] | EC50 [2] | EC50 [3] | Activity [4] | EC50 (Mus musculus) | bioavailability [5] | Vd [6] | half-life [7] | Cmax [8] | half-life [9] | clearance [10] | Structure (SMILES)
65% | 0.026 µM | 0.063 µM | 68% | – | – | – | – | – | – | – | COC(=O)c1cc(OCCCN(Cc2cccc(C(F)(F)F)c2Cl)CC(c2ccccc2)c2ccccc2)no1
25% | 0.015 µM | 0.023 µM | 30% | – | – | – | – | – | – | – | Cc1cc(OCCCN(Cc2cccc(C(F)(F)F)c2Cl)CC(c2ccccc2)c2ccccc2)n[nH]1
– | 0.51 µM | > 3 µM | 25% | – | – | – | – | – | – | – | Cc1cc(C)c2c(OCCCN(Cc3cccc(C(F)(F)F)c3Cl)CC(c3ccccc3)c3ccccc3)n[nH]c2n1
57% | 0.012 µM | 0.039 µM | 86% | – | – | – | – | – | – | – | Cn1ccc2c(OCCCN(Cc3cccc(C(F)(F)F)c3Cl)CC(c3ccccc3)c3ccccc3)cccc21
25% | 0.56 µM | 0.79 µM | 33% | – | – | – | – | – | – | – | Cc1cc(OCCCN(Cc2cccc(C(F)(F)F)c2Cl)CC(c2ccccc2)c2ccccc2)n2ncnc2n1
36% | 0.023 µM | 0.226 µM | 78% | – | – | – | – | – | – | – | FC(F)(F)c1cccc(CN(CCCOc2ccc3[nH]ccc3c2)CC(c2ccccc2)c2ccccc2)c1Cl
